Measured values reported in ChEMBL document CHEMBL1201862, “PubChem BioAssay data set” (2004).
Activity calls are given as the source filed them.

How the values were obtained:
[1] = A Cell Based Secondary Assay to Explore Cytotoxicity in HepG2 Cells of Compounds that Modulate Mycobacterium tuberculosis in Media Containing Glycerol versus Media without Glycerol (2).; format: functional
[2] = A Cell Based Secondary Assay to Explore Cytotoxicity in THP-1 Cells of Compounds that Modulate Mycobacterium tuberculosis in Media Containing Glycerol versus Media without Glycerol (2).; format: functional
[3] = target: Neurotensin receptor type 1 (Homo sapiens, UniProt P30989); format: functional;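 note: Image-based confirmatory dose-response assay measuring agonist activity at NTR1; NTR1-expressing U2OS osteosarcoma cells imaged for beta-arrestin GFP spot formation; agonist potency where compounds increase beta-arrestin recruitment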
Neurotensin receptor type 1, sequence (P30989 whole entry): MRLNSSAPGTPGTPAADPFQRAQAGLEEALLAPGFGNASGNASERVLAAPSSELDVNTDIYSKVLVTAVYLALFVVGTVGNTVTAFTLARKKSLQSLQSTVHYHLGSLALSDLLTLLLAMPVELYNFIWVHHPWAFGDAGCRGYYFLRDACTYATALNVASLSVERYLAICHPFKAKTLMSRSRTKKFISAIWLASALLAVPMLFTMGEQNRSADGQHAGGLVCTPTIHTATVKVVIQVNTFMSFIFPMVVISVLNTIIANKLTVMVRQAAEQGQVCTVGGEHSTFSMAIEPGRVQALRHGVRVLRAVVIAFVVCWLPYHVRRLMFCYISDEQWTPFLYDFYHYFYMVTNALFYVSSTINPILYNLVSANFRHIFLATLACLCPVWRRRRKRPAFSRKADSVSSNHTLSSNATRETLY

[4] = target: Heat shock protein HSP 90-alpha (Homo sapiens, UniProt P07900); format: functional, organism-based
[5] = target: Hepatocyte nuclear factor 4-alpha (Homo sapiens, UniProt P41235); format: functional, cell-based;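 note: biochemical luminescence-based dose-response counterscreen measuring inhibition of HNF4 dimerization, run alongside a screen for blockers of ABHD5–perilipin-5 interaction; split luciferase complementation of HNF4 fusion proteins in cell lysate measuring dimerization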
Hepatocyte nuclear factor 4-alpha, sequence (P41235 whole entry, the tested form may be a part): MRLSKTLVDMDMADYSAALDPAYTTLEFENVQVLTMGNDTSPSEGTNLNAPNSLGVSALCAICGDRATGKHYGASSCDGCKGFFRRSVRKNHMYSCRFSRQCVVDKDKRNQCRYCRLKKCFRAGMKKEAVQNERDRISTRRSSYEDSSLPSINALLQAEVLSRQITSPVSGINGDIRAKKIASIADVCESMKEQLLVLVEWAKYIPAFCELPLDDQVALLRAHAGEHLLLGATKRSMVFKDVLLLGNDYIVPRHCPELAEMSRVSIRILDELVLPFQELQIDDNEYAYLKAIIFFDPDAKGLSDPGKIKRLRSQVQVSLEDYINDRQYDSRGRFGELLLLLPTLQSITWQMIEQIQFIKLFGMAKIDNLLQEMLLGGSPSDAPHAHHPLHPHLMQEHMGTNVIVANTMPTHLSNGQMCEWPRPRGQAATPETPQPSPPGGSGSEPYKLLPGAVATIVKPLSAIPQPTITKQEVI

[6] = microbe, parasite or virus in culture; format: functional; details: Mycobacterium tuberculosis
[7] = Vero cell cytotoxicity, cytotoxicity control for M. tuberculosis inhibitor project, purified and synthesized samples, set 3 (AID 504684); format: functional
Kallikrein-7 = Kallikrein-7 (Homo sapiens, UniProt P49862); experiment: Fluorescence Intensity-based biochemical primary high throughput dose response assay to identify activators of kallikrein-7 (K7) zymogen.
Kallikrein-7, sequence (P49862 whole entry): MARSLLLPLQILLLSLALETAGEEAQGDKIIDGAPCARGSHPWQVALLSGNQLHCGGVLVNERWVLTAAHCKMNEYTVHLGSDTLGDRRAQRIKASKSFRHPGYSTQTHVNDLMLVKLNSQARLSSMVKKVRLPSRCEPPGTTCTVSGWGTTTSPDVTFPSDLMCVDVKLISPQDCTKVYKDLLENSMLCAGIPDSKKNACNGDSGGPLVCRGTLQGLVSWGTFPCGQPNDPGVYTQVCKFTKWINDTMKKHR

[8] = target: T1, Probable nicotinate-nucleotide adenylyltransferase (Staphylococcus aureus (strain N315), UniProt P65502); format: functional, Staphylococcus aureus subsp. aureus N315; details: read-out: IC50_Mean;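 for IC50 Mean: confirmatory dose-response retesting of NadD inhibitor hits first found in an ultra-high-throughput screen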
T1 sequence (P65502 whole entry): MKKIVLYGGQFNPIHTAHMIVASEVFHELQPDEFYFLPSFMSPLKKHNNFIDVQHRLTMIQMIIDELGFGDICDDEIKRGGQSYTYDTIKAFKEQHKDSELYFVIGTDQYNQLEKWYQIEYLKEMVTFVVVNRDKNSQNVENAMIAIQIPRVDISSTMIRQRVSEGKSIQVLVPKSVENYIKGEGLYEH

[9] = target: T1, Probable nicotinate-nucleotide adenylyltransferase; format: functional, Staphylococcus aureus subsp. aureus N315
Albumin = Albumin (Bos taurus, UniProt P02769); experiment: Counterscreen for inhibitors of T-cell receptor (TCR)-CD3 interaction: Fluorescence-based biochemical high throughput dose response assay to identify inhibitors of T-cell receptor (TCR)-CD3 interaction using a TAMRA-labeled BSA probe.; format: functional
Albumin, sequence (P02769 whole entry): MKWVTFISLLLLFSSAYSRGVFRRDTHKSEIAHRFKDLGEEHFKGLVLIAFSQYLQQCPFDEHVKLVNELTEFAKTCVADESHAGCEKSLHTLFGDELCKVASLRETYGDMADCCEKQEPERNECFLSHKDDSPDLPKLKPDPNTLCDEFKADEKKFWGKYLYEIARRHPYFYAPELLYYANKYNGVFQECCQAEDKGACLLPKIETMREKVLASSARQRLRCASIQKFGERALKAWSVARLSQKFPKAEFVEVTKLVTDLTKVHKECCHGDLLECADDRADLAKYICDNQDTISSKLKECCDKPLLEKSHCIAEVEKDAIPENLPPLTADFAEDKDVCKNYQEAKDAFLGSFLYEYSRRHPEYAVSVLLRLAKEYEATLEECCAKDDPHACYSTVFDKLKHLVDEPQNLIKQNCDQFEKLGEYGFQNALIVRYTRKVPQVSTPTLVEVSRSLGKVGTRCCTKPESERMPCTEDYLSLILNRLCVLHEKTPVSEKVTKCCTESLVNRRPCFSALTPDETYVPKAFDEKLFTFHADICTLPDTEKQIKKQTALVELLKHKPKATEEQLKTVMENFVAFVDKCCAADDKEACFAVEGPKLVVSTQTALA

[10] = target: DNA (cytosine-5)-methyltransferase 1 (Homo sapiens, UniProt P26358); experiment: DNMT1 methyltransferase inhibitors, confirmation, biochemical, fluorescent molecular beacon (AID 602386); format: functional
DNA (cytosine-5)-methyltransferase 1, sequence (P26358 whole entry): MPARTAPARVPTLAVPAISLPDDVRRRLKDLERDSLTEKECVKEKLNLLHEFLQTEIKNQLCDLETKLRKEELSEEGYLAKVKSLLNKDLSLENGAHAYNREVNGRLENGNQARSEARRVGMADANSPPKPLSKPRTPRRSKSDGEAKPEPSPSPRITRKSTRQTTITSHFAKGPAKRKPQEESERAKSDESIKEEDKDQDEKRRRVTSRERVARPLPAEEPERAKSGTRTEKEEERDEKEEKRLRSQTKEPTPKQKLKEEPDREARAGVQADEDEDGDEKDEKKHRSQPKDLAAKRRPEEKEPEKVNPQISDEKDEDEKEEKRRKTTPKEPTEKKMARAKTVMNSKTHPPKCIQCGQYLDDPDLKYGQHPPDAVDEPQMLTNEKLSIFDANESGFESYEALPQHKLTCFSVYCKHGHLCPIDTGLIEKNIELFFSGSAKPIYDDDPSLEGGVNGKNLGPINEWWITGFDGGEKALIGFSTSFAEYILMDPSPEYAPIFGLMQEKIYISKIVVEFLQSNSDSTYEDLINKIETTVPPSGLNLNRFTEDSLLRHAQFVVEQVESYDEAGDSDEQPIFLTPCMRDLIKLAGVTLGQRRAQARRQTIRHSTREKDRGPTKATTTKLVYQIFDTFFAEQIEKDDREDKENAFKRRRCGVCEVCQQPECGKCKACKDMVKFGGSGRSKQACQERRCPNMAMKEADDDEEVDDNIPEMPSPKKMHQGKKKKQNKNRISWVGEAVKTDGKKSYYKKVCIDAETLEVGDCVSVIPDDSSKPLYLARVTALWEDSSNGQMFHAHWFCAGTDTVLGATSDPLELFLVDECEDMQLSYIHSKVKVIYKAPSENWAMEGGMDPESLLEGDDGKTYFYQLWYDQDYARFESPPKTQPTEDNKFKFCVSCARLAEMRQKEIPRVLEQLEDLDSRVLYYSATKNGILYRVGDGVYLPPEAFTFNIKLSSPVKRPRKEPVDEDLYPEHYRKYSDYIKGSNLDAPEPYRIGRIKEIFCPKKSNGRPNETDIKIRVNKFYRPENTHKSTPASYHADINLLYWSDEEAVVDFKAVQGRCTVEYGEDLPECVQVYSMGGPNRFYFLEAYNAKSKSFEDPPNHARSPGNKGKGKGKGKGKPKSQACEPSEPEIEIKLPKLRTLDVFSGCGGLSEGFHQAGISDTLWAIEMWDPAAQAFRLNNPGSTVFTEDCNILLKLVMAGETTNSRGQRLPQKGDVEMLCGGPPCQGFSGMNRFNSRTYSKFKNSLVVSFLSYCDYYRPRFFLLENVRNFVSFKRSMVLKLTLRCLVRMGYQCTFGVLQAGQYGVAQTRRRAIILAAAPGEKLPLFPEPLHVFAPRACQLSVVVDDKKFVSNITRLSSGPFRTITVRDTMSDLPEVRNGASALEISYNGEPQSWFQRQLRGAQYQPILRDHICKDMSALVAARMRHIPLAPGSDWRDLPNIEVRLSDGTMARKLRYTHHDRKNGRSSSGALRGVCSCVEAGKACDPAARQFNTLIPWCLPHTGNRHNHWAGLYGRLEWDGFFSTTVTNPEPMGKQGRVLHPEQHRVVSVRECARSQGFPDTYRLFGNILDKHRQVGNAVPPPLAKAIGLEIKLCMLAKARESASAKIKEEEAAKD

HEK293 [11] = experiment: cells; details: Homo sapiens
Beta Lactamase = Beta Lactamase (Pseudomonas aeruginosa, UniProt Q932Y6); experiment: beta-lactamase reporter inhibitor potency, dose response, artefact control for NOD2-RIPK2 interaction inhibitor project, BLA reporter cells, FRET fluorescence (AID 651552); format: functional, cell-based
Beta Lactamase, sequence (Q932Y6 whole entry): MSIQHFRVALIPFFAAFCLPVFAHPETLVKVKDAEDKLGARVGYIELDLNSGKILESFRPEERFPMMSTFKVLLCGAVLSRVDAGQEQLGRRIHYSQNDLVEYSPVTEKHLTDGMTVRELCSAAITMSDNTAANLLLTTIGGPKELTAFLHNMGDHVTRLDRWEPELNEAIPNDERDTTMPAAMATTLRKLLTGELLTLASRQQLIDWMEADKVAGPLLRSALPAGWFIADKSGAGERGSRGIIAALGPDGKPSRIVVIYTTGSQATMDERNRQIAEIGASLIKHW

[12] = control 3'UTR Renilla luciferase suppression, dose response, counter-screen for Shn3 inhibitor project, cell-based, Clone20-Shn3RL, cherry-picked (AID 624133); format: functional
Beta-galactosidase = Beta-galactosidase (Escherichia coli, UniProt Q8VNN2); experiment: beta-galactosidase enzyme inhibitors and activators, dose response, artefact control for CCR6 antagonist project, biochemical, E. coli enzyme, set 3 (AID 504712); format: functional
Beta-galactosidase, sequence (Q8VNN2 whole entry): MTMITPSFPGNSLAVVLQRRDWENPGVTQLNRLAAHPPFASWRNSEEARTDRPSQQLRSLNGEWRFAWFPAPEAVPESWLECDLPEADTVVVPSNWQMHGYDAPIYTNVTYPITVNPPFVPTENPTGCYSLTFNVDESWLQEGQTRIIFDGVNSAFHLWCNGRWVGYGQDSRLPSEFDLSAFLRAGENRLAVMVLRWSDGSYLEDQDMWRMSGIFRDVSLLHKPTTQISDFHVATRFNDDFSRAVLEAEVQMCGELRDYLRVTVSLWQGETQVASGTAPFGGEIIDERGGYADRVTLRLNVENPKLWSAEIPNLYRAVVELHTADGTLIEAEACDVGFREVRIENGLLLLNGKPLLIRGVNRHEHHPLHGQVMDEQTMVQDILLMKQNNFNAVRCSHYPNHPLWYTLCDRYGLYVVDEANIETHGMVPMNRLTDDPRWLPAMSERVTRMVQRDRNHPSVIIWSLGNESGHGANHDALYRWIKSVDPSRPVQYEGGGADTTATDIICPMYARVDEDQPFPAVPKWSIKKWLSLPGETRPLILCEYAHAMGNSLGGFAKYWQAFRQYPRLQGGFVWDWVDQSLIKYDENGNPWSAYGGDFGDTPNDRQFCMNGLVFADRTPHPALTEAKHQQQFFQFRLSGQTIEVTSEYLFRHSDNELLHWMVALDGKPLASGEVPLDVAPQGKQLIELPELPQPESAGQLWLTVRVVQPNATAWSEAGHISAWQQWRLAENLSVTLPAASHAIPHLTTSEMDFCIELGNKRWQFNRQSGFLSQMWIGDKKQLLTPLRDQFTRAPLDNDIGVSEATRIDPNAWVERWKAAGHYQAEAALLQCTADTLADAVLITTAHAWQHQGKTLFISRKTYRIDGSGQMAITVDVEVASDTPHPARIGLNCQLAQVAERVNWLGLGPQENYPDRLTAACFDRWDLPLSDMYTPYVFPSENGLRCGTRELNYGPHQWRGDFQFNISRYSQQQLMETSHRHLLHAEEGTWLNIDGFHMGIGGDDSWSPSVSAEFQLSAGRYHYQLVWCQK

Paired box protein Pax-8 = Paired box protein Pax-8 (Homo sapiens, UniProt Q06710); experiment: inhibitors of PAX8-driven TPO luciferase reporter, dose response, RMG-I cells, cherry-pick (AID 687027); format: functional, cell-based;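 note: luciferase reporter driven by Pax8 target thyroperoxidase promoter measured by SteadyGlo luminescence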
[13] = Fluorescence-based cell-based high throughput dose response assay for inhibitors of the interaction of nucleotide-binding oligomerization domain containing 2 (NOD2) and the receptor-interacting serine-threonine kinase 2 (RIPK2).; format: functional; details: Homo sapiens
HEK293 [14] = experiment: cells; details: Homo sapiens; remark: listed apart in the source
[15] = Shn3 3'UTR reporter inhibitors, dose response, cell-based, Clone20 osteoblasts, firefly luciferase, cherry-picked (AID 624132); format: functional;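 note: firefly luciferase luminescence from reporter carrying the Shn3 3'UTR in osteoblasts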
[16] = HepG2 cell cytotoxicity, dose response, cytotoxicity control for Shn3 inhibitor project, CellTiter-Glo, cherry-picked (AID 624134); format: functional, cell-based
[17] = non-specific cell cytotoxicity, dose response, cytotoxicity control for PAX8 inhibitor project, plate reader, dry powder samples (AID 743021); format: functional, cell-based
H4 = experiment: Luminescence Cell-Based Dose Response HTS to Identify Activators of 5'UTR Stem-Loop Driven Prion Protein mRNA Translation in H4 Neuroglioblastoma Cells. [Related pubchem assays: 1829 (Project Summary), 1814 (Primary HTS)]; format: functional; details: Homo sapiens
[18] = Luminescence Cell-Based Dose Response HTS to Identify Activators of Luciferase Translation or Activity in H4 […] Cells. [Related pubchem assays: 1829 (Project Summary), 1814 (Primary HTS)]; format: functional
[19] = target: T2, DNA repair and recombination protein RAD54-like (Homo sapiens, UniProt Q92698); experiment: inhibitors of human RAD54 branch migration, confirmation, biochemical, fluorescence, cherry-picked samples, dose series (AID 651657); format: functional
T2 sequence (Q92698 whole entry): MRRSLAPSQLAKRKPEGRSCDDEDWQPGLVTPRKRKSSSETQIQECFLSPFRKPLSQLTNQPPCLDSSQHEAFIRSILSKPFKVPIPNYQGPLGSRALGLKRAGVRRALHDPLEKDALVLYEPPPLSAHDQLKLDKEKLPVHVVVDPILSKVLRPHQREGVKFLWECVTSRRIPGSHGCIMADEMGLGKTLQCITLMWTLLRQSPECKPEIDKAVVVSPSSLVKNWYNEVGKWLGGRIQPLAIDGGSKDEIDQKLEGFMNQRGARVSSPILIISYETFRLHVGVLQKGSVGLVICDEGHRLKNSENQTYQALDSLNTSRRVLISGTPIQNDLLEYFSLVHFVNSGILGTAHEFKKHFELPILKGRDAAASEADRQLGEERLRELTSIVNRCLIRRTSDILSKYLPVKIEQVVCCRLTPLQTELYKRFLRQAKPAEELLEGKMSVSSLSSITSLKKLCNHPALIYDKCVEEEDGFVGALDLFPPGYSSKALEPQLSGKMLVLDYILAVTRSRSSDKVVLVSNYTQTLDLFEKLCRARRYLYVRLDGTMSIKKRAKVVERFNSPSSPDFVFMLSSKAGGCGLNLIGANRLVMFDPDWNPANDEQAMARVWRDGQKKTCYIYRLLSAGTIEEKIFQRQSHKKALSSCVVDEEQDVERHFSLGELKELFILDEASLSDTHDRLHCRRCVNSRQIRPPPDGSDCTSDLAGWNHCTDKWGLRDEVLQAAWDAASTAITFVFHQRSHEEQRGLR

[20] = target: T3, DNA repair protein RAD52 homolog (Homo sapiens, UniProt P43351); format: functional, biochemical
T3 sequence (P43351 whole entry): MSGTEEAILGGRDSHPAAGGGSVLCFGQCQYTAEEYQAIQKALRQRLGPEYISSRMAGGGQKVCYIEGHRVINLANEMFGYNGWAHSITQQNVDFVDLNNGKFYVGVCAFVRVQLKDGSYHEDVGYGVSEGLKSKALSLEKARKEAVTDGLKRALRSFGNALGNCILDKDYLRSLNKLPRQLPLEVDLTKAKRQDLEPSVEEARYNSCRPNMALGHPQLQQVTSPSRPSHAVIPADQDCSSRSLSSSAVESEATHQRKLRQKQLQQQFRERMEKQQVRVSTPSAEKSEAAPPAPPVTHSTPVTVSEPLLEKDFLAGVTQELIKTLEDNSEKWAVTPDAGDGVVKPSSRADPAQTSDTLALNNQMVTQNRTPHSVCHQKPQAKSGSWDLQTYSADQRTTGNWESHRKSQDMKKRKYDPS

[21] = target: SWI/SNF-related matrix-associated actin-dependent regulator of chromatin subfamily A member 2 (Homo sapiens, UniProt P51531); experiment: Luminescence-based cell-based high throughput dose response assay to identify activators of the function of SWI/SNF related, matrix associated, actin dependent regulator of chromatin, subfamily a, member 2 (SMARCA2, BRM).; format: functional
[22] = Luminescence Cell-Based Dose Confirmation HTS to Identify Activators of 5'UTR Stem-Loop Driven Alpha-Synuclein mRNA Translation in H4 Neuroglioblastoma Cells. [Related pubchem assays: 1829 (Project Summary), 1814 (Primary HTS)]; format: functional
[23] = DNA binding of candidate compounds, dose response, artefact control for RAD54 inhibitor project, biochemical, fluorescence polarization, cherry-pick (AID 651673); format: functional
[24] = Counterscreen for activators of the function of SWI/SNF related, matrix associated, actin dependent regulator of chromatin, subfamily a, member 2 (SMARCA2, BRM): Luminescence-based cell-based high throughput dose response assay to identify non-selective compounds using the VP16 reporter assay.; format: functional

**Q.** Which CC50 [1] does the source give for `COC(=O)c1cc(=O)n(-c2ccc(F)cc2)/c(=N/c2ccc(F)cc2)s1` here?
**A.** Its CC50 is 24.1 µM (active).

**Q.** What about the CC50 [2] of the same compound?
**A.** The CC50 was 21.5 µM (active).

**Q.** And the EC50 [3]?
**A.** Its EC50 is 11.1 µM (active).

**Q.** And the AC50 [4]?
**A.** Its AC50 is 8.18 µM (active).

**Q.** And the IC50 [5]?
**A.** Its IC50 is 4.1 µM (active).

**Q.** What about the CC50 [6] of the same compound?
**A.** The CC50 was 13.9 µM (active).

**Q.** And the CC50 [7]?
**A.** The CC50 was 12.9 µM (active).

**Q.** Which EC50 (Kallikrein-7) does the source give for `COC(=O)C1CCN(C(=O)c2cc(-c3ccco3)nc3ccccc23)CC1` here?
**A.** The EC50 was > 69.5 µM (inactive).

**Q.** And the IC50 [8]?
**A.** Its IC50 is 44.6 µM (active).

**Q.** What about the IC50 [9] of the same compound?
**A.** The IC50 was 18.8 µM (active).

**Q.** What about the IC50 (Albumin) of the same compound?
**A.** Its IC50 is > 94.1 µM (inactive).

**Q.** What about the IC50 [10] of the same compound?
**A.** Its IC50 is 7.31 µM (active).

**Q.** What does the source list for `C=C1CC(Cn2cc(Br)c(=O)[nH]c2=O)(c2ccc(-c3ccccc3)cc2)OC1=O` (stereo not given)?
**A.** EC50 (HEK293 [11]): > 59.7 µM (inactive); IC50 (Beta Lactamase): 12.2 µM (inactive); AC50 [12]: 4.16 µM (active); IC50 (Beta-galactosidase): > 66.6 µM (inactive); AC50 (Paired box protein Pax-8): 6.49 µM (active); IC50 [13]: 2.2 µM (active); EC50 (HEK293 [14]): > 59.7 µM (inactive); AC50 [15]: 2.67 µM (active); AC50 [16]: 13.6 µM (active); AC50 [17]: 55.6 µM (active)

**Q.** Which results are given for `CCN(CC)CCn1c2ccccc2c2nc3ccccc3nc21`?
**A.** EC50 (H4): 29.6 µM (active); EC50 [18]: 15.1 µM (active); AC50 [19]: 7.12 µM (active); AC50 [20]: 3.27 µM (active); EC50 [21]: 10.1 µM (inactive); EC50 [22]: 31.8 µM (active); AC50 [23]: 64 µM (active); EC50 [24]: > 91.1 µM (inactive)
